Laboratory results from publication PMC6331899, “Soluble Epoxide Hydrolase Inhibitory Activity of Selaginellin Derivatives from Selaginella tamariscina” (Molecules, 2015).

Legend:
[1] = target: T1, Soluble epoxide hydrolases (human recombinant) (Homo sapiens, UniProt P34913); assay: biochemical; details: triplicate; for inhibition at 100 µM: PHOME substrate, read-out: Inhibitory Rate at 100 μM (%) sEH; for IC50: PHOME hydrolysis, pH 7.0, 37 °C, read-out: sEH IC50
T1 construct: purchased Cayman (Ann Arbor, MI, USA) 10011669
T1 sequence (P34913 1-555): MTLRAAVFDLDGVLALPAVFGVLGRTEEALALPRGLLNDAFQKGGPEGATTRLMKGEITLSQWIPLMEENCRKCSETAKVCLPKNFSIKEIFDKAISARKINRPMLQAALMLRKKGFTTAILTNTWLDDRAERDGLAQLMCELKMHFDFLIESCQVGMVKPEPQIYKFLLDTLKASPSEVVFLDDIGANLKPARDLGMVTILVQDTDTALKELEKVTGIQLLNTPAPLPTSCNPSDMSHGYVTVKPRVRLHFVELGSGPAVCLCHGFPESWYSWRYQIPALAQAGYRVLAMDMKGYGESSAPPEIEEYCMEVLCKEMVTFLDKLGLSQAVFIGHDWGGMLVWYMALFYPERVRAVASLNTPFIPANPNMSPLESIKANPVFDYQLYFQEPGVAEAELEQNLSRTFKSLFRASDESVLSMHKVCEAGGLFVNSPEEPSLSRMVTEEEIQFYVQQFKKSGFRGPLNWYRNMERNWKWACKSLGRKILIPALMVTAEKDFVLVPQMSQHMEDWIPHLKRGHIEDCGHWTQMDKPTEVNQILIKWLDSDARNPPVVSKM
Protocol: To evaluate the binding mode between sEH and the inhibitors, a kinetic study was performed using various inhibitors and substrate concentrations.
NMR spectra was obtained on Bruker Advance 600 and 300 MHz (Bruker; Rheinstetten, Germany) spectrometer. Column chromatography was performed using silica gel (Kieselgel 60; 70–230; and 230–400 mesh; Merck; Darmstadt, Germany) and YMC RP-18 resins. Thin layer chromatography (TLC) was performed using pre-coated silica-gel 60 F254 and RP-18 F254S plates (both 0.25 mm; Merck; Darmstadt, Germany). Spots were visualized by spraying with 10% aqueous H2SO4 solution followed by heating. Methanol; acetonitrile (Sigma-Aldrich; St. Louis, MO, USA) and trifluoroacetic acid (Alfa Aesar; Ward Hill, MA, USA) used in this study were of HPLC grade and the distilled water was prepared by the ultra-pure water manufacturing device (Optimos; Sinhan Science Tech, Daejeon, Korea). […] The quantitative analysis for three selaginellins was carried out on Optimapak C18 (250 mm × 4.6 mm I.D.; 5 μm) column.

tyrosinase = assay: Tyrosinase inhibition; format: biochemical; details: triplicate
sEH = target: T2, sEH (Homo sapiens, UniProt P34913); assay: sEH kinetic analysis (Lineweaver-Burk, secondary plot); format: biochemical; details: for sEH inhibition type: Lineweaver-Burk plots; for Ki: secondary re-plot of slope vs [I], Equation (3)
T2 construct: purchased Cayman (Ann Arbor, MI, USA) 10011669
T2 sequence (P34913 1-555): T1 sequence (P34913 1-555)
Protocol: To evaluate the inhibitory activity of compounds 1–3 on sEH, their hydrolysis effects on the formation of 6-methoxy-2-naphthaldehyde from (3-phenyl-oxiranyl)-acetic acid cyano-(6-methoxy-naphthalen-2-yl)-methyl ester (PHOME) were evaluated by fluorometric determination using an excitation wavelength of 330 nm and emission wavelength of 465 nm. […]. To evaluate the binding mode between sEH and the inhibitors, a kinetic study was performed using various inhibitors and substrate concentrations.
Secondary plots can be constructed from (3) Slope=km/Vmax+Km[I]/VmaxKi

Row | SMILES | inhibition at 100 µM [1] | IC50 [1] | Inhibitory Rate at 100 μM (%) Tyrosinase (tyrosinase) | sEH inhibition type (sEH) | Ki (sEH)
1 | O=C1C=CC(=C(c2ccc(O)cc2)c2c(C#Cc3ccc(O)cc3)cccc2-c2ccc(O)cc2)C=C1 [Compound 1, selaginellin A] | 92.5 ± 0.8% | 3.1 ± 0.1 µM | 36.2 ± 2.1% | Noncompetitive | 2.9 µM
2 | O=C1C=CC(=C(c2ccc(O)cc2)c2c(-c3ccc(O)cc3)ccc(CO)c2C#Cc2ccc(O)cc2)C=C1 [Compound 3, selaginellin] | 94.5 ± 5% | 4.2 ± 0.2 µM | 40.1 ± 3.2% | Noncompetitive | 1.8 µM
3 | Cc1ccc(-c2ccc(O)cc2)c(C(=C2C=CC(=O)C=C2)c2ccc(O)cc2)c1C#Cc1ccc(O)cc1 [Compound 2, selaginellin B] | 89.3 ± 2.1% | 8.2 ± 2.2 µM | 32.5 ± 1.5% | Noncompetitive | 6.8 µM
